Assay results taken from publication PMC9890698 (BMC Biology, 2023).
Several values for one entry are separate records, joined by “and”; a condition that tells them apart may be missing. Equal entries are not always repeated.

What was measured:
[1] = molecular target: T1, Human P2Y12-R (Homo sapiens, UniProt Q9H244); test: β-arrestin 2 recruitment BRET1 assay (β-arrestin 2-RLuc / P2Y12-R-Venus) in HEK293T cells; format: cell-based; settings: Fig. S5; P2Y12-R; (+) apyrase; individual replicates
T1 construct: expressed in transfected cells; host or cells: HEK293T/17
T1 sequence (Q9H244 whole entry): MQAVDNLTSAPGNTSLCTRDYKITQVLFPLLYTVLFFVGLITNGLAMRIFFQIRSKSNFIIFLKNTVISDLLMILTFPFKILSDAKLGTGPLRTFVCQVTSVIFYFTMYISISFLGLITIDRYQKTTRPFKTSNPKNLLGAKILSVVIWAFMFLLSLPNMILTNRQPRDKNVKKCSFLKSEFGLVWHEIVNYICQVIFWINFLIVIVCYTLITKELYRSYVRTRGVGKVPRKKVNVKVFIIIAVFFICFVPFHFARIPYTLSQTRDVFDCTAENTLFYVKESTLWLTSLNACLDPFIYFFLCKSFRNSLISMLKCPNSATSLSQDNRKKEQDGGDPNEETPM
Source text: We assessed β-arrestin 2 recruitment to the receptor using BRET^1 assay. The assay measures the interaction between β-arrestin 2 fused to the Renilla reniformis luciferase (RLuc) energy donor and the receptor fused to fluorescent Venus energy acceptor (Fig. 3a). The recruitment of cytosolic β-arrestin 2 to the receptor at the plasma membrane in the presence of an agonist will promote a significant increase of the BRET signal compared to the basal state, reflecting the close proximity between the β-arrestin 2 energy donor and the receptor energy acceptor [22]. […]
G protein activation and β-arrestin 2 recruitment were performed as previously described. […] BRET signal between RLuc8 and GFP2 was measured after addition of the luciferase substrate coelenterazine 400a (5 μM). […] BRET signal was recorded after incubation with coelenterazine h (5 μM) for 8 min. For kinetics studies, BRET signal between RLuc and Venus was recorded at 20-s intervals at basal state for the 2 first minutes and then for 5 min after ligand injection. For saturation curves (BRET^1), the expression level of Venus- or RLuc-tagged protein was determined by direct measurement of total fluorescence and luminescence respectively. Total fluorescence was first measured with an excitation filter at 485 nm and an emission filter at 520 nm. […] BRET^2 and BRET^1 readings were collected using a modified Infinite F500 (Tecan Group Ltd). […]

[2] = molecular target: T2, Human P2Y1-R (Homo sapiens, UniProt P47900); test: β-arrestin 2 recruitment BRET1 assay (β-arrestin 2-RLuc / P2Y1-R-Venus) in HEK293T cells; format: cell-based; settings: Fig. S5; P2Y1-R; (+) apyrase; individual replicates
T2 construct: expressed in transfected cells; host or cells: HEK293T/17
T2 sequence (P47900 whole entry): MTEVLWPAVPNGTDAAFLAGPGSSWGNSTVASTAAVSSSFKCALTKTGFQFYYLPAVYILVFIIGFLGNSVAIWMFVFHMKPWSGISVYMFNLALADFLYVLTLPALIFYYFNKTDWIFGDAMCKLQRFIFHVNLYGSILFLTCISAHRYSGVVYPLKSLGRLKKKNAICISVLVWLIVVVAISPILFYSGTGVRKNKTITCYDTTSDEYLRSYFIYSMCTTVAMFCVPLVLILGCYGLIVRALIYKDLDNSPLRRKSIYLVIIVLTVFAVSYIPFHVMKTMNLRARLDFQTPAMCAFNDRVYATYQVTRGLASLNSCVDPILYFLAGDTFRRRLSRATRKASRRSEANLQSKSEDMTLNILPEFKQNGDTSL
Source text: We assessed β-arrestin 2 recruitment to the receptor using BRET^1 assay. The assay measures the interaction between β-arrestin 2 fused to the Renilla reniformis luciferase (RLuc) energy donor and the receptor fused to fluorescent Venus energy acceptor (Fig. 3a). The recruitment of cytosolic β-arrestin 2 to the receptor at the plasma membrane in the presence of an agonist will promote a significant increase of the BRET signal compared to the basal state, reflecting the close proximity between the β-arrestin 2 energy donor and the receptor energy acceptor [22].
(§1) Human P2Y1-R (NCBI Reference Sequence: NM_002563.2) and P2Y12-R (NCBI Reference Sequence: NM_022788.3) were fused to double Myc epitope and rat AT1-R (NCBI Reference Sequence: NM_030985.4) to HA tag in N-terminus extracellular region. Alternatively, receptors were also fused to Venus tag in C-terminus intracellular region. Plasmids encoding Gαq-RLuc8, GFP2-Gγ2 and untagged Gβ1 were previously described. ADP was purchased from Sigma-Aldrich/Merck (Darmstadt, Germany). […] The Gq inhibitor (FR900359) was kindly supplied by Evi Kostenis (University of Bonn. Germany).
(§2) G protein activation and β-arrestin 2 recruitment were performed as previously described. Briefly, vectors encoding receptors, Gαq-RLuc8, GFP2-Gγ2, Gβ1, or β-arrestin 2 were transiently cotransfected into HEK293T/17 cells as indicated in the figure legends. Forty-eight hours after transfection, cells were washed and resuspended in PBS containing 0.1% (w/v) glucose at room temperature and then distributed (80 μg proteins/well) in a 96-well microplate (PerkinElmer). For G protein activation experiments (BRET^2), cells were incubated in the absence (basal BRET signal) or in the presence of ligand for 1 minute. BRET signal between RLuc8 and GFP2 was measured after addition of the luciferase substrate coelenterazine 400a (5 μM). For β-arrestin 2 recruitment (BRET^1), cells were stimulated with ligands for 5 or 15 min. BRET signal was recorded after incubation with coelenterazine h (5 μM) for 8 min. For kinetics studies, BRET signal between RLuc and Venus was recorded at 20-s intervals at basal state for the 2 first minutes and then for 5 min after ligand injection. For saturation curves (BRET^1), the expression level of Venus- or RLuc-tagged protein was determined by direct measurement of total fluorescence and luminescence respectively. Total fluorescence was first measured with an excitation filter at 485 nm and an emission filter at 520 nm. Then, the same sample was incubated for 8 minutes with 5 μM coelenterazine h and the total luminescence was measured. BRET^2 and BRET^1 readings were collected using a modified Infinite F500 (Tecan Group Ltd). The BRET^2 signal was calculated by the ratio of emission of GFP2 (510–540 nm) to RLuc8 (370–450 nm) and the BRET^1 signal by the ratio of emission of Venus (520–570 nm) to RLuc (370–480 nm). Sometimes, results are expressed as the Net BRET computed by deducting the BRET background signal (obtained in the presence of the energy donor alone) from the BRET signal (acquired from cells expressing both the energy donor and acceptor).

[3] = molecular target: T2, Human P2Y1-R; test: Gαq protein activation BRET2 assay (Gαq-RLuc8/GFP2-Gγ2/Gβ1) in HEK293T cells expressing P2Y1-R; format: cell-based; settings: Fig. S2a, P2Y1-R, individual replicates
Source text: (§3) As previously described, using a BRET^2 (bioluminescence resonance energy transfer)-based assay, we directly monitored the basal Gαq protein activation by measuring the interaction between Gαq and Gγ2 subunits of the Gαqβ1γ2 heterotrimer complex. Indeed, this assay is based on the non-radiative transfer between the Renilla reniformis luciferase (RLuc8) energy donor fused to the Gαq protein subunit and the fluorescent GFP2 energy acceptor fused to Gγ2 protein subunit (Fig. 1a). […] By contrast, ligand-independent constitutive receptor activation or agonist-induced receptor activation will promote Gαq/Gγ2 subunit dissociation, thereby leading to a decrease of the basal BRET signal (Fig. 1a). […] To preclude any P2Y1-R activation by a passive release of ADP by HEK293T cells, we performed similar experiments in the presence of high concentration of apyrase (0.2U/mL) to degrade any trace of ADP in the medium (Additional File 2: Fig. S2a). Under these conditions, P2Y1-R expression still induces a marked and significant decrease of the basal BRET signal compared to control cells (pcDNA3.1), thereby supporting a P2Y1-R-dependent constitutive activation of Gαq protein. […] Of note, because P2Y1-R and AT1-R were respectively Myc- and HA-tagged and were thus detected using different primary antibodies, their expression at the cell surface cannot be compared between each other’s.
as §1
as §2, with “Sometimes, results are expressed as the Net BRET computed by deducting the BRET background signal (obtained in the presence of the energy donor alone) from the BRET signal (acquired from cells expressing both the energy donor and acceptor).” left out

[4] = tested on: Gαq protein in HEK293T cells (pcDNA3.1); test: Gαq protein activation BRET2 assay in control HEK293T cells without receptor (pcDNA3.1 / 0 μg); format: cell-based, Human; settings: Fig. S2a, pcDNA3.1, individual replicates
Source text: as §3
as §2, with “Briefly, vectors encoding receptors, Gαq-RLuc8, GFP2-Gγ2, Gβ1, or β-arrestin 2 were transiently cotransfected into HEK293T/17 cells as indicated in the figure legends. Forty-eight hours after transfection, cells were washed and resuspended in PBS containing 0.1% (w/v) glucose at room temperature and then distributed (80 μg proteins/well) in a 96-well microplate (PerkinElmer). For G protein activation experiments (BRET^2), cells were incubated in the absence (basal BRET signal) or in the presence of ligand for 1 minute.” left out, “For β-arrestin 2 recruitment (BRET^1), cells were stimulated with ligands for 5 or 15 min.” left out

[5] = tested on: HEK293T cells (pcDNA3.1); test: β-arrestin 2 BRET1 basal signal in control HEK293T cells without receptor (pcDNA3.1); format: cell-based, Human; settings: Fig. S5, (+) apyrase, individual replicates
Source text: Supplement 12915_2023_1528_MOESM8_ESM.xlsx, sheet "Fig. S5" | column: (+) apyrase

## apyrase
[1]
  Basal BRET signal: 0.9157 and 0.9699 and 0.8998 and 0.9124
[2]
  Basal BRET signal: 0.9766 and 1.039 and 0.9705 and 1.011
[3]; (+) apyrase 1 min
  Basal BRET signal: 0.9128 and 0.7477 and 0.6192 and 0.8378
[3]; (+) apyrase 5 min
  Basal BRET signal: 0.6209 and 0.8174 and 0.9018 and 0.7551
[3]; (+) apyrase 10 min
  Basal BRET signal: 0.6295 and 0.8302 and 0.9025 and 0.7259
[4]; (+) apyrase 1 min
  Basal BRET signal: 2.035 and 1.852 and 1.218 and 1.795
[4]; (+) apyrase 5 min
  Basal BRET signal: 1.227 and 1.746 and 2.0243 and 1.801
[4]; (+) apyrase 10 min
  Basal BRET signal: 1.204 and 1.749 and 1.987 and 1.796
[5]
  Basal BRET signal: 0.8767 and 0.9382 and 0.883 and 0.8696
